The results in this text go back to BindingDB's records for doi:10.1016/j.bioorg.2015.04.003 (Comsats Institute of Information Technology, 2015).

The target of this assay is T1, Thymidine phosphorylase (Escherichia coli O157:H7, UniProt Q8XB35).
T1 sequence (Q8XB35 whole entry): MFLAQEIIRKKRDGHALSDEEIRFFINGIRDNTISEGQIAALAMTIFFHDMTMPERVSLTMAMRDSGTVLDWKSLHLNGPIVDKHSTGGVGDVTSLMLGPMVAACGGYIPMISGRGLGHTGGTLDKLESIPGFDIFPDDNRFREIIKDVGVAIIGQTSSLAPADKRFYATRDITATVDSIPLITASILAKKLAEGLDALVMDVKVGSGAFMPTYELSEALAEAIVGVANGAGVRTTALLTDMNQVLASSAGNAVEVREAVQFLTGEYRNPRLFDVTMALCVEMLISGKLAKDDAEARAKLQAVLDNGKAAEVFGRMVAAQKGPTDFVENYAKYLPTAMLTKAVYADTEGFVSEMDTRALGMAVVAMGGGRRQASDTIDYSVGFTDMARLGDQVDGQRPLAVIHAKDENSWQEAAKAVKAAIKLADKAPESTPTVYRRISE
The assay is described as follows: Thymidine Phosphorylase Inhibition Assay. Conditions: pH 7.4. On the procedure: Briefly, a total reaction mixture of 200 µl contained 145 µl of potassium phosphate buffer (pH 7.4), 30 µl of enzyme at concentration 0.05 and 0.002 U, respectively, were incubated with 5 µl of test materials for 10 min at 25 °C in microplate reader. After incubation, pre read at 290 nm was taken to deduce the absorbance of substrate molecules. Substrate (20 µl, 1.5 mM) was dissolved in potassium phosphate buffer and was immediately added to plate and continuously read after 10, 20, and 30 min in micro-plate reader. All assays were performed in triplicate
By IC50 is commonly meant the midpoint of a concentration-inhibition curve. Consider `Cc1cccc(-c2nnc(S)o2)c1` [5-(3'-Methylphenyl)-1,3,4-oxadiazole-2(3H)-thione (4)], for which inhibition was half-maximal at 91.8 µM (IC50). That is a double-digit micromolar value.

`Oc1ccccc1-c1nnc(S)o1` [5-(2'-Hydroxyphenyl)-2,3-dihydro-1,3,4-oxadiazole-2-thione (2)] came in with a 50% inhibitory concentration (IC50) of 68.4 µM. This IC50 and that of the compound before are within 1.5-fold of each other.

Consider `S=c1[nH]nc(-c2ccc(Cl)cc2)o1` [5-(4'-Chlorophenyl)-1,3,4-oxadiazole-2(3H)-thione (11)], for which the IC50 was determined as 64 µM.

In turn, `Sc1nnc(-c2cccc(Cl)c2)o1` [5-(3'-Chlorophenyl)-1,3,4-oxadiazole-2(3H)-thione (10)] came in with an IC50 of 258 µM.

Regarding `Oc1ccc(-c2nnc(S)o2)cc1` [5(4'-Hydroxyphenyl)-1,3,4-oxadiazole-2(3H)-thione (6)], it took 38.2 µM to reach half-maximal inhibition (IC50).

Take `COc1cc(-c2n[nH]c(=S)o2)cc(OC)c1OC` [5-(3',4',5'-Trimethoxyphenyl)-1,3,4-oxadiazole-2(3H)-thione (8)]: inhibition was half-maximal at 63.4 µM (IC50).

`S=c1[nH]nc(-c2ccc(Br)cc2)o1` [5-(4'-Bromophenyl)-1,3,4-oxadiazole-2(3H)-thione (12)]: the 50% inhibitory concentration (IC50) came to 64 µM. The IC50 values of the last two compounds are within 1.5-fold of each other.

Take `Nc1ccccc1-c1n[nH]c(=S)o1` [5-(2'-Aminophenyl)-1,3,4-oxadiazole-2(3H)-thione (3)]: the IC50 stood at 74.3 µM.

Compound `COc1ccc(-c2n[nH]c(=S)o2)cc1` [5-(4'-Methoxyphenyl)-1,3,4-oxadiazole-2(3H)-thione (7)] gave an IC50 of 72.4 µM.
